Counter-ions that a name gives are not always drawn.
Biological target: T1, human histamine H3 receptor (Homo sapiens, UniProt Q9Y5N1)
T1 construct: expressed in transfected cells; host or cells: CHO cells
Experiment: cAMP formation assay, inhibition of R-α-methylhistamine agonism, receptor transfected into CHO cells (EIA kit)
Type: cell-based
Settings: EIA kit (Amersham)
Text: The compounds of the invention of formula (I) were also subjected to a cAMP formation assay on the human histamine H3 receptor transfected into CHO cells by the inhibition of the agonism brought about by the specific binding of R-α-methylhistamine to this receptor, according to the methods described by Lovenberg, T. W. et al. in J. Pharmacol. Exp. Ther., 293, 771-778 (2000).

T1 sequence (Q9Y5N1 whole entry): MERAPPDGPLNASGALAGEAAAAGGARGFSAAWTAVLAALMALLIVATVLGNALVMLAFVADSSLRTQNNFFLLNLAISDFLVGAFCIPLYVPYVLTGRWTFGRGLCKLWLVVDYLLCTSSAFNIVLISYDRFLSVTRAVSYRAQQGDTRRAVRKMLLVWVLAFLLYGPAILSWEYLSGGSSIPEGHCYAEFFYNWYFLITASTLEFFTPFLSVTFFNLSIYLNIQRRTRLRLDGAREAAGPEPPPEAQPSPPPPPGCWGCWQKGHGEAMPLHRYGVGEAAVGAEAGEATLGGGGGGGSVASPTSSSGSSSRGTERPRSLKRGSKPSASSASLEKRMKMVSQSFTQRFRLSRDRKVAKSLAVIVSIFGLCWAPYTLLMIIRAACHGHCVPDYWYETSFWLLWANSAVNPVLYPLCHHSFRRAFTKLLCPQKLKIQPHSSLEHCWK

SMILES | IC50
CN1CCCC1CCOc1ccc2c(c1)CN(CC1CCCCC1)CC2 (stereo not drawn) [Compound 5, 2-(cyclohexylmethyl)-7-[2-(1-methylpyrrolidin-2-yl)ethoxy]-1,2,3,4-tetrahydroisoquinoline] | < 10 nM

System: not given
Experiment: not given
Settings: not given

SMILES | melting point
CN1CCC[C@@H]1CCOc1ccc2c(c1)CN(CC1CCCCC1)CC2 (as salt: hydrochloride) [Compound 6, 2-(cyclohexylmethyl)-7-{2-[(2R)-1-methylpyrrolidin-2-yl]ethoxy}-1,2,3,4-tetrahydroisoquinoline] | 190 to 200 °C
CN1CCC[C@@H]1CCOc1ccc2c3c(ccc2c1)CCN(CC1CCCCC1)C3 (as salt: hydrochloride) [Compound 14, 2-(cyclohexylmethyl)-8-{2-[(2R)-1-methylpyrrolidin-2-yl]ethoxy}-1,2,3,4-tetrahydrobenzo[h]isoquinoline] | 274 to 277 °C
CN1CCC[C@H]1CCOc1ccc2c(c1)CN(CC1CCCCC1)CC2 (as salt: hydrochloride) [Compound 18, 2-(Cyclohexylmethyl)-7-(2-[(2S)-1-methylpyrrolidin-2-yl]ethoxy)-1,2,3,4-tetrahydroisoquinoline hydrochloride (1:2)] | 238 to 241 °C
CN1CCC[C@H]1CCOc1ccc2c(c1)CN(CC1CCCCC1)CC2 (as salt: oxalate) [Compound 7, 2-(cyclohexylmethyl)-7-{2-[(2S)-1-methylpyrrolidin-2-yl]ethoxy}-1,2,3,4-tetrahydroisoquinoline] | 195 to 199 °C
CN1CCCCC1CCOc1ccc2c(c1)CN(CC1CCCCC1)CC2 (stereo not drawn) (as salt: oxalate) [Compound 9, 2-(cyclohexylmethyl)-7-[2-(1-methylpiperidin-2-yl)ethoxy]-1,2,3,4-tetrahydroisoquinoline] | 101 to 111 °C
CN1CCCC1CCOc1ccc2c(c1)CN(Cc1ccccc1)CC2 (stereo not drawn) (as salt: oxalate) [Compound 10, 2-benzyl-7-[2-(1-methylpyrrolidin-2-yl)ethoxy]-1,2,3,4-tetrahydroisoquinoline] | 143 to 150 °C
CN1CCC[C@H]1CCOc1ccc2c3c(ccc2c1)CCN(CC1CCCCC1)C3 (as salt: oxalate) [Compound 15, 2-(cyclohexylmethyl)-8-{2-[(2S)-1-methylpyrrolidin-2-yl]ethoxy}-1,2,3,4-tetrahydrobenzo[h]isoquinoline] | 271 to 274 °C
CN1CCCC(Oc2ccc3c4c(ccc3c2)CCN(CC2CCCCC2)C4)CC1 (stereo not drawn) (as salt: oxalate) [Compound 16, 2-(cyclohexylmethyl)-8-[(1-methylazepan-4-yl)oxy]-1,2,3,4-tetrahydrobenzo[h]isoquinoline] | 77 to 82 °C
CN1CCCCC1CCOc1ccc2c3c(ccc2c1)CCN(CC1CCCCC1)C3 (stereo not drawn) (as salt: oxalate) [Compound 17, 2-(cyclohexylmethyl)-8-[2-(1-methylpiperidin-2-yl)ethoxy]-1,2,3,4-tetrahydrobenzo[h]isoquinoline] | 124 to 127 °C
CC(C)CN1CCc2ccc(OCCC3CCCN3C)cc2C1 (stereo not drawn) (as salt: tartrate) | 77 to 80 °C
CC(C)CCN1CCc2ccc(OCCC3CCCN3C)cc2C1 (stereo not drawn) (as salt: tartrate) [Compound 3, 2-(3-methylbutyl)-7-[2-(1-methylpyrrolidin-2-yl)ethoxy]-1,2,3,4-tetrahydroisoquinoline] | 61 to 65 °C

Second part, the compound after the results:

melting point | SMILES
186 to 190 °C | CCCN1CCc2ccc(OCCC3CCCCN3C)cc2C1 (stereo not drawn) (as salt: hydrochloride)
108 to 116 °C | CN1CCCC(Oc2ccc3c(c2)CN(Cc2ccccc2)CC3)CC1 (stereo not drawn) (as salt: oxalate) [Compound 11, 2-benzyl-7-[(1-methylazepan-4-yl)oxy]-1,2,3,4-tetrahydroisoquinoline]
98 to 110 °C | CN1CCCC(Oc2ccc3c(c2)CN(Cc2cccs2)CC3)CC1 (stereo not drawn) (as salt: oxalate) [Compound 12, 7-[(1-methylazepan-4-yl)oxy]-2-(2-thienylmethyl)-1,2,3,4-tetrahydroisoquinoline]
96 to 107 °C | CCCCN1CCc2ccc(OC3CCCN(C)CC3)cc2C1 (stereo not drawn) (as salt: tartrate)
95 to 105 °C | CCCCN1CCc2ccc(OCCC3CCCN3C)cc2C1 (stereo not drawn) (as salt: tartrate)
76 to 97 °C | CCCN1CCc2ccc(OC3CCCN(C)CC3)cc2C1 (stereo not drawn) (as salt: tartrate)
66 to 91 °C | CCCN1CCc2ccc(OCCC3CCCN3C)cc2C1 (stereo not drawn) (as salt: tartrate)
60 to 70 °C | CC(C)CCN1CCc2ccc(OC3CCCN(C)CC3)cc2C1 (stereo not drawn) (as salt: tartrate) [Compound 4, 7-[(1-methylazepan-4-yl)oxy]-2-(3-methylbutyl)-1,2,3,4-tetrahydroisoquinoline]

Biological target: native histamine H3 receptor (Rattus norvegicus, UniProt Q9QYN8)
Experiment: in vitro affinity assay, specific binding of [3H]-N-α-methylhistamine, adult rat brain membrane preparation
Settings: adult rat brain membranes, read-out: Ki with regard to the H3 receptors
Text: Thus, the compounds of the invention of formula (I) were subjected to an in vitro affinity assay on the native histamine H3 receptor in an adult rat brain membrane preparation by the specific binding of [^3H]-N-α-methylhistamine to this receptor, according to methods described by Korte, A. et al. in Biochem. Biophys. Res. Commun., 168, 979-986 (1990) and by West, R. E. Jr. et al. in Mol. Pharmacol., 38, 610-613 (1990).

Chain of native histamine H3 receptor (Q9QYN8 1-397 isoform Q9QYN8-3): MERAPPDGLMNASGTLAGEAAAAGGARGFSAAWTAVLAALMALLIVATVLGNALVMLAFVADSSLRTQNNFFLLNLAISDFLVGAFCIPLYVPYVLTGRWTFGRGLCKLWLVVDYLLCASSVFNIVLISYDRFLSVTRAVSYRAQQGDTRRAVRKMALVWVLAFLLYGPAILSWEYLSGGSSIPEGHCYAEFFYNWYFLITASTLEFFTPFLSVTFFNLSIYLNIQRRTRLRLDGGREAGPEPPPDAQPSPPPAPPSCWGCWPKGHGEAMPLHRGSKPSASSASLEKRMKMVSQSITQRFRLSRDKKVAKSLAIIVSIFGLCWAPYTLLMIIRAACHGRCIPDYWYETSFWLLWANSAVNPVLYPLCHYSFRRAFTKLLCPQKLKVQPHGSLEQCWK

SMILES | Ki
CN1CCCC1CCOc1ccc2c(c1)CN(CC1CCCCC1)CC2 (stereo not drawn) [Compound 5, 2-(cyclohexylmethyl)-7-[2-(1-methylpyrrolidin-2-yl)ethoxy]-1,2,3,4-tetrahydroisoquinoline] | 0.1 nM

Source: US7678807B2, “Isoquinoline and benzo[H] isoquinoline derivatives, preparation and therapeutic use thereof as antagonists of the histamine H3 receptor” (sanofi-aventis, priority 2005, dated 2010)
